Test results: the supplement of paper PMC10307832

Columns and labels:
Test in all cases: relative viability (nuclei count vs DMSO), 5 days (fraction); higher = more cells survive
NCI-H661 = test system: NCI-H661
Summary of the method: (§1)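 Each reported value is a median over duplicate plates. It expresses relative viability: treated-well nuclei count divided by vehicle-well nuclei count. Lung cancer cell lines in 1536-well plates were dosed by pin tool a day after seeding, alone with one drug or with a fixed anchor-drug dose plus five library-drug doses (not always all listed) in √10 steps, and nuclei were counted after 5 days.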

NCI-H727 = test system: NCI-H727
Summary of the method: as §1

NCI-H441 = test system: NCI-H441
Summary of the method: as §1

COR-L23 = test system: COR-L23
Summary of the method: as §1

EKVX = test system: EKVX
Summary of the method: as §1

CAL-12T = test system: CAL-12T
Summary of the method: as §1

BEN = test system: BEN
Summary of the method: as §1

NCI-H2009 = test system: NCI-H2009
Summary of the method: as §1

NCI-H2170 = test system: NCI-H2170
Summary of the method: as §1

NCI-H1666 = test system: NCI-H1666
Summary of the method: as §1

ABC-1 = test system: ABC-1
Summary of the method: as §1

NCI-H1437 = test system: NCI-H1437
Summary of the method: as §1

LU99A = test system: LU99A
Summary of the method: as §1

201T = test system: 201T
Summary of the method: as §1

LK-2 = test system: LK-2
Summary of the method: as §1

SW 900 = test system: SW 900
Summary of the method: as §1

COR-L 105 = test system: COR-L 105
Summary of the method: as §1

NCI-H1650 = test system: NCI-H1650
Summary of the method: as §1

HCC-366 = test system: HCC-366
Summary of the method: as §1

HARA = test system: HARA
Summary of the method: as §1

NCI-H838 = test system: NCI-H838
Summary of the method: as §1

PC-14 = test system: PC-14
Summary of the method: as §1

NCI-H3122 = test system: NCI-H3122
Summary of the method: as §1

Which results are given for `NC(=O)Nc1cc(-c2cccc(F)c2)sc1C(=O)N[C@H]1CCCNC1` [AZD7762] + O=C(c1cc(Cc2n[nH]c(=O)c3ccccc23)ccc1F)N1CCN(C(=O)C2CC2)CC1 [Olaparib] (partner 8 µM)?
relative viability (NCI-H661; first compound 0.01 µM): 0.798; relative viability (NCI-H661; first compound 0.03162 µM): 0.779; relative viability (NCI-H661; first compound 0.1 µM): 0.711; relative viability (NCI-H661; first compound 0.3162 µM): 0.503; relative viability (NCI-H661; first compound 1 µM): 0.426; relative viability (NCI-H727; first compound 0.01 µM): 0.735; relative viability (NCI-H727; first compound 0.03162 µM): 0.723; relative viability (NCI-H727; first compound 0.1 µM): 0.931; relative viability (NCI-H727; first compound 0.3162 µM): 0.717; relative viability (NCI-H727; first compound 1 µM): 0.543; relative viability (NCI-H441; first compound 0.01 µM): 0.707; relative viability (NCI-H441; first compound 0.03162 µM): 0.795; relative viability (NCI-H441; first compound 0.1 µM): 0.675; relative viability (NCI-H441; first compound 0.3162 µM): 0.555; relative viability (NCI-H441; first compound 1 µM): 0.287; relative viability (COR-L23; first compound 0.01 µM): 0.405; relative viability (COR-L23; first compound 0.03162 µM): 0.248; relative viability (COR-L23; first compound 0.1 µM): 0.215; relative viability (COR-L23; first compound 0.3162 µM): 0.166; relative viability (COR-L23; first compound 1 µM): 0.0843; relative viability (EKVX; first compound 0.01 µM): 0.82; relative viability (EKVX; first compound 0.03162 µM): 1.04; relative viability (EKVX; first compound 0.1 µM): 0.62; relative viability (EKVX; first compound 0.3162 µM): 0.844; relative viability (EKVX; first compound 1 µM): 0.393; relative viability (CAL-12T; first compound 0.01 µM): 0.908; relative viability (CAL-12T; first compound 0.03162 µM): 0.756; relative viability (CAL-12T; first compound 0.1 µM): 0.865; relative viability (CAL-12T; first compound 0.3162 µM): 0.489; relative viability (CAL-12T; first compound 1 µM): 0.2; relative viability (BEN; first compound 0.01 µM): 1.05; relative viability (BEN; first compound 0.03162 µM): 1.04; relative viability (BEN; first compound 0.1 µM): 0.966; relative viability (BEN; first compound 0.3162 µM): 1.01; relative viability (BEN; first compound 1 µM): 0.658; relative viability (NCI-H2009; first compound 0.01 µM): 0.719; relative viability (NCI-H2009; first compound 0.03162 µM): 0.726; relative viability (NCI-H2009; first compound 0.1 µM): 0.747; relative viability (NCI-H2009; first compound 0.3162 µM): 0.521; relative viability (NCI-H2009; first compound 1 µM): 0.34; relative viability (NCI-H2170; first compound 0.01 µM): 0.553; relative viability (NCI-H2170; first compound 0.03162 µM): 0.579; relative viability (NCI-H2170; first compound 0.1 µM): 0.535; relative viability (NCI-H2170; first compound 0.3162 µM): 0.423; relative viability (NCI-H2170; first compound 1 µM): 0.254; relative viability (NCI-H1666; first compound 0.01 µM): 0.85; relative viability (NCI-H1666; first compound 0.03162 µM): 0.973; relative viability (NCI-H1666; first compound 0.1 µM): 1.06; relative viability (NCI-H1666; first compound 0.3162 µM): 0.968; relative viability (NCI-H1666; first compound 1 µM): 0.814; relative viability (ABC-1; first compound 0.01 µM): 0.968; relative viability (ABC-1; first compound 0.03162 µM): 0.857; relative viability (ABC-1; first compound 0.1 µM): 0.893; relative viability (ABC-1; first compound 0.3162 µM): 0.938; relative viability (ABC-1; first compound 1 µM): 0.685; relative viability (NCI-H1437; first compound 0.01 µM): 0.696; relative viability (NCI-H1437; first compound 0.03162 µM): 0.648; relative viability (NCI-H1437; first compound 0.1 µM): 0.621; relative viability (NCI-H1437; first compound 0.3162 µM): 0.612; relative viability (NCI-H1437; first compound 1 µM): 0.433; relative viability (LU99A; first compound 0.01 µM): 0.253; relative viability (LU99A; first compound 0.03162 µM): 0.246; relative viability (LU99A; first compound 0.1 µM): 0.202; relative viability (LU99A; first compound 0.3162 µM): 0.148; relative viability (LU99A; first compound 1 µM): 0.124; relative viability (201T; first compound 0.01 µM): 0.821; relative viability (201T; first compound 0.03162 µM): 0.854; relative viability (201T; first compound 0.1 µM): 0.885; relative viability (201T; first compound 0.3162 µM): 0.566; relative viability (201T; first compound 1 µM): 0.475; relative viability (LK-2; first compound 0.01 µM): 0.789; relative viability (LK-2; first compound 0.03162 µM): 1; relative viability (LK-2; first compound 0.1 µM): 0.729; relative viability (LK-2; first compound 0.3162 µM): 0.623; relative viability (LK-2; first compound 1 µM): 0.435; relative viability (SW 900; first compound 0.01 µM): 0.887; relative viability (SW 900; first compound 0.03162 µM): 0.835; relative viability (SW 900; first compound 0.1 µM): 0.727; relative viability (SW 900; first compound 0.3162 µM): 0.949; relative viability (SW 900; first compound 1 µM): 0.47; relative viability (COR-L 105; first compound 0.01 µM): 0.699; relative viability (COR-L 105; first compound 0.03162 µM): 0.643; relative viability (COR-L 105; first compound 0.1 µM): 0.529; relative viability (COR-L 105; first compound 0.3162 µM): 0.542; relative viability (COR-L 105; first compound 1 µM): 0.516; relative viability (NCI-H1650; first compound 0.01 µM): 0.787; relative viability (NCI-H1650; first compound 0.03162 µM): 0.863; relative viability (NCI-H1650; first compound 0.1 µM): 0.905; relative viability (NCI-H1650; first compound 0.3162 µM): 0.658; relative viability (NCI-H1650; first compound 1 µM): 0.23; relative viability (HCC-366; first compound 0.01 µM): 0.364; relative viability (HCC-366; first compound 0.03162 µM): 0.305; relative viability (HCC-366; first compound 0.1 µM): 0.278; relative viability (HCC-366; first compound 0.3162 µM): 0.157; relative viability (HCC-366; first compound 1 µM): 0.0818; relative viability (HARA; first compound 0.01 µM): 0.768; relative viability (HARA; first compound 0.03162 µM): 0.759; relative viability (HARA; first compound 0.1 µM): 0.507; relative viability (HARA; first compound 0.3162 µM): 0.301; relative viability (HARA; first compound 1 µM): 0.229; relative viability (NCI-H838; first compound 0.01 µM): 0.86; relative viability (NCI-H838; first compound 0.03162 µM): 0.774; relative viability (NCI-H838; first compound 0.1 µM): 0.744; relative viability (NCI-H838; first compound 0.3162 µM): 0.493; relative viability (NCI-H838; first compound 1 µM): 0.169; relative viability (PC-14; first compound 0.01 µM): 0.248; relative viability (PC-14; first compound 0.03162 µM): 0.157; relative viability (PC-14; first compound 0.1 µM): 0.0969; relative viability (PC-14; first compound 0.3162 µM): 0.0837; relative viability (PC-14; first compound 1 µM): 0.0568; relative viability (NCI-H3122; first compound 0.01 µM): 0.681; relative viability (NCI-H3122; first compound 0.03162 µM): 0.527; relative viability (NCI-H3122; first compound 0.1 µM): 0.588; relative viability (NCI-H3122; first compound 0.3162 µM): 0.477; relative viability (NCI-H3122; first compound 1 µM): 0.404
